Each structure is given as a SMILES string.

For the test, the target named is human recombinant TPK1 (Homo sapiens, UniProt P49841). As to the kind of experiment: Inhibitory activity against P-GS1 phosphorylation by TPK1 (Kinase Glo luminescence). The following applies: 7.5 μM P-GS1, 10 μM ATP, 25° C. for 16 hours, Kinase Glo Reagent luminescent signal. It is filed as biochemical. The method, then: Inhibitory Activity of the Medicament of the Present Invention Against P-GS1 Phosphorylation by Bovine Cerebral TPK1
Chain of human recombinant TPK1 (P49841 whole entry): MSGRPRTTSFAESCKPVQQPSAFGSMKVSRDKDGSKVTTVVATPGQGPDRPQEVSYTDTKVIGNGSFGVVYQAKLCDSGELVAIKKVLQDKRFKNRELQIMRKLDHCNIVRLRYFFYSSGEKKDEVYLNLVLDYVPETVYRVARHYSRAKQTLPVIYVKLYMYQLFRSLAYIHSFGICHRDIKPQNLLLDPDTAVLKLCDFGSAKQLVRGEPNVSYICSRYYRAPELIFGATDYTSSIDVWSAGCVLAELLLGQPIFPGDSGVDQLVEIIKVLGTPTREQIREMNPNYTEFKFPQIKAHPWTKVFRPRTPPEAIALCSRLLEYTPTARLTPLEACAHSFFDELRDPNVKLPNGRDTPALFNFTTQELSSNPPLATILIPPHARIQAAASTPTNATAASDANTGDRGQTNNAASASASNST
A mixture containing 100 mM HEPES-sodium hydroxide (pH 7.2), 1 mM magnesium acetate, 1 mM EGTA, 1 mM dithiothreitol (DTT), 0.02% Tween 20, 7.5 μM P-GS1, 10 μM ATP, human recombinant TPK1 and a compound shown in Table (a final mixture contained 1% DMSO deriving from a solution of a test compound prepared in the presence of 10% DMSO) was used as a reaction system. The phosphorylation was started by adding ATP, and the reaction was conducted at 25° C. for 16 hours. Then equal volume of Kinase Glo Reagent (Promega) was added to the mixture and luminescent signal from the mixture was measured. IC50 for each compound was calculated by setting the data of mixture without enzyme as 0% activity and that without compound as 100% activity.
In general terms: Kinase-Glo reads ATP consumption through a luciferase reaction.
By IC50 is commonly meant the concentration that inhibits the measured activity by half. Take `Cn1c(N2CCCO[C@H](c3ccc(F)cc3)C2)nc(-c2ccncc2)cc1=O` [Compound A057, (R)-2-(2-(4-fluorophenyl)-1,4-oxazepan-4-yl)-3-methyl-6-(pyridin-4-yl)pyrimidin-4(3H)-one]: the IC50 turned out to be 207 nM. The same measure for `CC1COCCN(c2nc(-c3ccncc3F)cc(=O)n2C)C1` (stereo not shown) [Compound A084, 2-(6-methyl-1,4-oxazepan-4-yl)-6-(3-fluoropyridin-4-yl)-3-methylpyrimidin-4(3H)-one]: 15 nM; for `Cc1noc(-c2ccc([C@H]3CN(c4nc(-c5ccncn5)cc(=O)n4C)CCCO3)cc2)n1` [Compound A031, (S)-2-[2-[4-(3-methyl-1,2,4-oxadiazol-5-yl)-phenyl]-1,4-oxazepan-4-yl]-3-methyl-6-(pyrimidin-4-yl)pyrimidin-4(3H)-one]: 20.2 nM; for `Cn1c(N2CCOCC(c3ccccc3)C2)nc(-c2ccncn2)cc1=O` (single isomer, unassigned; (-)) [Compound A075, (−)-2-(6-phenyl-1,4-oxazepan-4-yl)-3-methyl-6-(pyrimidin-4-yl)pyrimidin-4(3H)-one]: 1.4 nM.

Consider `Cc1nc(-c2cccc([C@H]3CN(c4nc(-c5ccncn5)cc(=O)n4C)CCCO3)c2)no1` [Compound A030, (S)-2-[2-[3-(5-methyl-1,2,4-oxadiazol-3-yl)-phenyl]-1,4-oxazepan-4-yl]-3-methyl-6-(pyrimidin-4-yl)pyrimidin-4(3H)-one], for which the IC50 was 19.8 nM.

Turning to `Cc1noc(-c2ccc(C3CCN(c4nc(-c5ccncn5)cc(=O)n4C)CCO3)cc2)n1` (single isomer, unassigned; (-)) [Compound A121, (−)-2-[7-[4-(3-methyl-1,2,4-oxadiazol-5-yl)-phenyl]-1,4-oxazepan-4-yl]-3-methyl-6-(pyrimidin-4-yl)pyrimidin-4(3H)-one], the IC50 was found to be 83.4 nM. For `Cn1c(N2CCCO[C@@H](c3cccc(C(N)=O)c3)C2)nc(-c2ccncc2)cc1=O` [Compound A033, (S)-2-[2-(3-aminocarbonylphenyl)-1,4-oxazepan-4-yl]-3-methyl-6-(pyridin-4-yl)pyrimidin-4(3H)-one] the value was 23.4 nM; for `Cc1nc(-c2ccc([C@H]3CN(c4nc(-c5ccncc5F)cc(=O)n4C)CCCO3)cc2)no1` [Compound A027, (S)-2-[2-[4-(5-methyl-1,2,4-oxadiazol-3-yl)-phenyl]-1,4-oxazepan-4-yl]-6-(3-fluoropyridin-4-yl)-3-methylpyrimidin-4(3H)-one], 15.4 nM. For `Cn1c(N2CCOC(c3ccccc3F)CC2)nc(-c2ccncc2)cc1=O` (stereo not shown) [Compound A110, 2-(7-(2-fluorophenyl)-1,4-oxazepan-4-yl)-3-methyl-6-(pyridin-4-yl)pyrimidin-4(3H)-one] the value was 29.2 nM; for `Cn1c(N2CCOC(c3ccc(F)cc3)CC2)nc(-c2ccncc2)cc1=O` (stereo not shown) [Compound A123, 2-[7-(4-fluorophenyl)-1,4-oxazepan-4-yl]-3-methyl-6-(pyridin-4-yl)pyrimidin-4(3H)-one], 153 nM; for `Cc1noc(-c2ccc([C@H]3CN(c4nc(-c5ccncc5F)cc(=O)n4C)CCCO3)cc2)n1` [Compound A019, (S)-2-[2-[4-(3-methyl-1,2,4-oxadiazol-5-yl)-phenyl]-1,4-oxazepan-4-yl]-6-(3-fluoropyridin-4-yl)-3-methylpyrimidin-4(3H)-one], 11.1 nM.

As to `COc1ccccc1C1CCN(c2nc(-c3ccncn3)cc(=O)n2C)CCO1` (stereo not shown) [Compound A102, 2-[7-(2-methoxyphenyl)-1,4-oxazepan-4-yl]-3-methyl-6-(pyrimidin-4-yl)pyrimidin-4(3H)-one], the IC50 came to 16.3 nM.

As to `Cn1c(N2CCCO[C@@H](c3ccc(C#N)cc3)C2)nc(-c2ccncc2)cc1=O` [Compound A037, (S)-2-(2-(4-cyanophenyl)-1,4-oxazepan-4-yl)-3-methyl-6-(pyridin-4-yl)pyrimidin-4(3H)-one], the IC50 was determined as 30.8 nM.

(Values after patent US9108957B2 (MITSUBISHI TANABE PHARMA CORPORATION, priority 2009, dated 2015).)
